PMC11509018, “Evaluation of the Role of Tanshinone I in an In Vitro System of Charcot-Marie-Tooth Disease Type 2N” (International Journal of Molecular Sciences, 2024)

Target: T1, AlaRS G102R binding to GST-Nrp1 b1 (Homo sapiens, UniProt P49588, G102R)
T1 construct: made in house; host or cells: E. coli BL21 (DE3), pET-21a for AlaRS
T1 sequence (P49588 1-968 G102R): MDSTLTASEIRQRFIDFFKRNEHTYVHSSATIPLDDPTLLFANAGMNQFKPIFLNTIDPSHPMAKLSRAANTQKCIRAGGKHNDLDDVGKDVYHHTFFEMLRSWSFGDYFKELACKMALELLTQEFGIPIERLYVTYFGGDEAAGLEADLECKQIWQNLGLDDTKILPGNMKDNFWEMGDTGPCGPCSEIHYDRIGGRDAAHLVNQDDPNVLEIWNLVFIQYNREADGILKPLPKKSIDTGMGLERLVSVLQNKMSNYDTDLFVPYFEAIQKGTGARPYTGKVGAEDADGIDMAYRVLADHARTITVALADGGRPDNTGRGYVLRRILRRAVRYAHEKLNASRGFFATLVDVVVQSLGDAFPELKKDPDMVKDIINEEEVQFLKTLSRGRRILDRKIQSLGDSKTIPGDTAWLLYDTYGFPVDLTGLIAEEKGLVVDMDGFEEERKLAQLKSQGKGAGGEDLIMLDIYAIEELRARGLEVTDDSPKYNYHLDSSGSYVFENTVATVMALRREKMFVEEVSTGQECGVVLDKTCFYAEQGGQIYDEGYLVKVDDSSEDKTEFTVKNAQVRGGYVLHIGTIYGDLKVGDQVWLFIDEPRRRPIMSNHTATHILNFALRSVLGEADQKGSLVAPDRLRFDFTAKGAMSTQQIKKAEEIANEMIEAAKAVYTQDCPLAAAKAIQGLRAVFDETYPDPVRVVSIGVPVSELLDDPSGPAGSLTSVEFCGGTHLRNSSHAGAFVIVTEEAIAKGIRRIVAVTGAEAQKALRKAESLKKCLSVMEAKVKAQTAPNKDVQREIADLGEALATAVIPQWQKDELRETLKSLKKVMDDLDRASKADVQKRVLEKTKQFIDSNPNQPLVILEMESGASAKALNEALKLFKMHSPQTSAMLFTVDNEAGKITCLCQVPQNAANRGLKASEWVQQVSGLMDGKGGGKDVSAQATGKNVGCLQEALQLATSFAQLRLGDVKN
Experiment: GST pull down assay
Details: 20 µM Tanshinone I, ImageJ, average of three repeats
Method: To further investigate whether Tanshinone I-induced conformational changes in AlaRS CMT mutants affect their interaction with Nrp1, Co-IP experiments were performed in cells treated with Tanshinone I. By comparing Co-IP results obtained before and after treatment, we assessed the influence of the drug on the binding strength and mode between the AlaRS CMT mutants and Nrp1. […] To confirm the direct effect of Tanshinone I on the interaction between AlaRS CMT mutants and Nrp1, pull-down experiments were performed. […] Given that the interaction between AlaRS mutants and Nrp1 is associated with disease progression in CMT, the ability of Tanshinone I to disrupt this binding highlights its potential to intervene in the pathogenic mechanisms of these diseases.
Figure 7 The impact of Tanshinone I on the interaction between AlaRS mutants and Nrp1. (A) Co-IP assays were conducted to assess the binding between HA-AlaRS mutants and Nrp1, both with and without treatment with 20 µM Tanshinone I for 24 h. […] (C) Pull down assay was performed to detect the binding between AlaRS mutants and GST-Nrp1 b1 with or without 20 µM Tanshinone I. (D) Relative quantification statistics of the AlaRS mutants pulled down from the GST pull down experiments after Tanshinone I treatment were performed using ImageJ. (E) The cell viability of 293T and NSC34 cells treated with different concentrations of Tanshinone I was assessed using the CCK-8 assay over a 24 h period. TEXT PRINTED IN THE PICTURE: (B) Tanshinone I: Mean density band (N71Y): 0.60; Mean density band (G102R): 0.53; Mean density band (R326W): 0.50; Mean density band (R329H): 0.50; Mean density band (E337K): 0.62 | (D) Tanshinone I: Mean density band (N71Y): 0.82; Mean density band (G102R): 0.76; Mean density band (R326W): 0.84; Mean density band (R329H): 0.84; Mean density band (E337K): 0.90
To detect the direct interactions between the mutant proteins and Nrp1 in vitro, we performed a Glutathione S-transferase (GST) pull-down assay. AlaRS mutants fused with 6 × His were purified with Ni-NTA beads, followed by chromatography on a HiTrap Q HP column. Nrp1 b1 fragments fused with GST were purified with Glutathione Beads (#SA008100, Smart-Lifesciences, Changzhou, China). For GST pull-down assays, 1000 μg of each GST-fused Nrp1 b1 fragment was mixed with 200 μg of 6 × His-tagged fusion protein in binding buffer (50 mM Tris-HCl pH 7.5, 20 mM NaCl, 5% glycerol, 5 mM DTT with 0.1% BSA) at 4 °C overnight. The mixture was next incubated with 30 μL glutathione beads at 4 °C with constant rotation for 2–4 h. Subsequently, the bead/protein complex was washed three times, and eluted with 30 μL 2 × SDS sample buffer. The samples were then subjected to SDS-PAGE analysis. The experiment was repeated three times.

SMILES: Cc1coc2c1C(=O)C(=O)c1c-2ccc2c(C)cccc12 [Tanshinone I]
- Mean density band (G102R), relative quantification of AlaRS mutant pulled down: 0.76
